Consider 31 molecules from patent publication US4769373A, “Anti-arrhythmic azabicyclic compounds” (Richter Gedeon Vegyeszeti Gyar Rt., priority 1983, dated 1988).

The subject of data set [1] is disorders of the cardiac rhythm provoked by aconitine. Nature of the data set: animal or person. The note with it: for ED50: Rattus norvegicus, iv, read-out: ED50 (dose required to restore the rhythm in 50%), Wistar rats, i.v., aconitine-induced arrhythmia; for ED50 (dose required to restore the rhythm in 50%): i.v., aconitine-induced arrhythmia; for LD50/ED50 index: LD50 mice i.v. / ED50 rats i.v.; for index ratio (index of the test compound : index of Lidocaine): relative to Lidocaine = 1. The procedure:
The anti-arrhytmic effect was tested in Wistar rats. The animals first received aconitine intravenously to provoke disorders of the cardiac rhythm [M. Fekete and J. Borsy: Med. Exp. Basel, 10, 93 (1964)] and then i.v. the test (or reference) compound. […] The dose required to restore the rhythm in 50% (ED50 mg/kg) was determined.

The nature of data set [2]: in vivo. The note with it: mouse, iv, mice, i.v., read-out: LD50 (dose causing 50% mortality).
Data set [3] deals with ischiadic nerve isolated from frog. Nature of the data set: local anaesthetic activity on isolated ischiadic nerve. The note with it: relative to Lidocaine.
The subject of data set [4] is heart isolated from guinea pig. Nature of the data set: electrophysiological parameters (conduction time, refractory period) of isolated heart. The following applies: relative to quinidine. The text has this: The new compounds have no beta-receptor blocking effect. In a local anaesthetic mechanism of effect the compounds of the formula (I) influence certain electrophysiological parameters of the heart. E.g. increase in conduction time and refractory period were observed on heart isolated from guinea pig.

Molecules are shown by their SMILES. Where a name gives a salt, the structure may show the parent alone.

For `CCN(CC)CC(=O)Nc1c(C)cccc1C` [Lidocaine, reference compound], the ED50 in data set [1] amounted to 7.7 mg/kg.

For the molecule `CN1CC2CCC(N(C)C)C(C1)C2OC(=O)c1ccccc1` (stereo not drawn) [compound 1528, 6α-dimethylamino-3-methyl-9α-benzoyloxy-3-azabicyclo[3.3.1]nonane dihydrochloride], the “ED50 (dose required to restore the rhythm in 50%)” value in data set [1] (Wistar rats, dihydrochloride) came to 0.68 mg/kg.

Turning to `COc1cc(C(=O)OC2C3CCC(N(C)C)C2CN(C)C3)cc(OC)c1OC` (stereo not drawn) [compound 1529, 6α-dimethylamino-3-methyl-9α(3',4',5'-trimethoxybenzoyloxy)-3-azabicyclo[3.3.1]nonane], in data set [1], the LD50/ED50 index came out at 234.0, the ED50 turned out to be 0.15 mg/kg and the “index ratio (index of the test compound : index of Lidocaine)” value (shortened to “index ratio”) is reported as 71.8. In data set [1] (Wistar rats, 20 mg/kg dose p.o.), the “anti-arrhythmic effect, oral” value was “prolonged anti-arrhythmic effect”. Further, the 50% lethal dose (LD50) in data set [2] came out at 35.2 mg/kg.

For `CN1CC2CCC(N(C)C)C(C1)C2OC(=O)c1ccc(-c2ccccc2)cc1` (stereo not drawn) [compound 1530, 6α-dimethylamino-3-methyl-9α-(4'-phenylbenzoyloxy)-3-azabicyclo[3.3.1]nonane], the ED50 in data set [1] was 1.8 mg/kg.

On to `CN1CC2CCC(N(C)C)C(C1)C2OC(=O)C1c2ccccc2Oc2ccccc21` (stereo not drawn) [compound 1531, 6α-dimethylamino-3-methyl-9α-(xanthen-9-carbonyloxy)-3-azabicyclo[3.3.1]nonane dihydrochloride], for which the ED50 in data set [1] worked out at 1 mg/kg.

As to `CN1CC2CCC(N(C)C)C(C1)C2Oc1ccccc1` (stereo not drawn) [compound 1533, 6α-dimethylamino-3-methyl-9α-phenoxy-3-azabicyclo[3.3.1]nonane], the ED50 in data set [1] is 1.4 mg/kg.

Take `CN1CC2CCC(N(C)C)C(C1)C2Oc1ccc(Cl)cc1` (stereo not drawn) [compound 1534, 6α-dimethylamino-3-methyl-9α-(4'-chlorophenoxy)-3-azabicyclo[3.3.1]nonane fumarate]: the ED50 in data set [1] was determined as 1.1 mg/kg.

Take `CN1CC2CCC(N(C)C)C(C1)C2Oc1cccc(Cl)c1` (stereo not drawn) [compound 1535, 6α-dimethylamino-3-methyl-9α-(3'-chlorophenoxy)-3-azabicyclo[3.3.1]nonane monohydrochloride]: the ED50 in data set [1] was 2.5 mg/kg.

As to `CN1CC2CCC(N(C)C)C(C1)C2Oc1ccccc1Cl` (stereo not drawn) [compound 1536, 6α-dimethylamino-3-methyl-9α-(2'-chlorophenoxy)-3-azabicyclo[3.3.1]nonane dihydrochloride], in data set [1], the ED50 came out at 1.8 mg/kg.

For `CN1CC2CCC(N(C)C)C(C1)C2Oc1ccc(Cl)c(Cl)c1` (stereo not drawn) [compound 1537, 6α-dimethylamino-3-methyl-9α-(3',4'-dichlorophenoxy)-3-azabicyclo[3.3.1]noname fumarate], the ED50 in data set [1] worked out at 4 mg/kg.

As to `CN1CC2CCC(N(C)C)C(C1)C2Oc1cccc(C(F)(F)F)c1` (stereo not drawn) [compound 1539, 6α-dimethylamino-3-methyl-9α-(3'-trifluoromethylphenoxy)-3-azabicyclo[3.3.1]nonane fumarate], in data set [1], the LD50/ED50 index came out at 256.0 and the “index ratio” value was 78.5. Further, the “ED50 (dose required to restore the rhythm in 50%)” value in data set [1] (Wistar rats) turned out to be 0.25 mg/kg. In addition, the LD50 in data set [2] turned out to be 64 mg/kg. Also, in data set [3], the “local anaesthetic activity compared with Lidocaine” value was “as active as the Lidocaine”.

As for `CN1CC2CCC(N(C)C)C(C1)C2OC(c1ccccc1)c1ccccc1` (stereo not drawn) [compound 1540, 6α-dimethylamino-3-methyl-9α-benzhydryloxy-3-azabiocyclo[3.3.1]nonane], the ED50 in data set [1] amounted to 0.4 mg/kg.

Regarding `CN1CC2CCC(N(C)C)C(C1)C2OC(=O)c1ccccc1` (stereo not drawn) [compound 1541, 6α-dimethylamino-3-methyl-9β-benzoyloxy-3-azabicyclo[3.3.1]nonane dihydrochloride], the “ED50 (dose required to restore the rhythm in 50%)” value in data set [1] (Wistar rats, dihydrochloride) came to 3.5 mg/kg.

On to `CN1CC2CCC(N(C)C)C(C1)C2OC(=O)c1ccccc1` (stereo not drawn) [compound 1542, 6β-dimethylamino-3-methyl-9α-benzoyloxy-3-azabicyclo[3.3.1]nonane], for which, in data set [1], the LD50/ED50 index is reported as 50.5 and the “index ratio” value is on record as 15.5. Moreover, in data set [1] (Wistar rats), the “ED50 (dose required to restore the rhythm in 50%)” value was 0.43 mg/kg. For the same molecule, the LD50 in data set [2] is 21.7 mg/kg. Also, the “local anaesthetic activity compared with Lidocaine” value in data set [3] is listed as “four times more favorable effective than Lidocaine”. Besides, in data set [4], the “activity on electrophysiological parameters compared with quinidine” value is recorded as “about five times more active than the quinidine”.

Turning to `CN1CC2CCC(N(C)C)C(C1)C2OC(=O)C1c2ccccc2Oc2ccccc21` (stereo not drawn) [compound 1543, 6β-dimethylamino-3-methyl-9α-(xanthen-9'-carbonyloxy)-3-azabicyclo[3.3.1]nonane], the “ED50 (dose required to restore the rhythm in 50%)” value in data set [1] (Wistar rats) is 0.6 mg/kg.

For the molecule `CN1CC2CCC(N(C)C)C(C1)C2Oc1ccccc1` (stereo not drawn) [compound 1544, 6β-dimethylamino-3-methyl-9α-phenoxy-3-azabicyclo-[3.3.1]nonane], in data set [1] (Wistar rats), the “ED50 (dose required to restore the rhythm in 50%)” value amounted to 1.4 mg/kg.

On to `CN1CC2CCC(N(C)C)C(C1)C2Oc1cccc(C(F)(F)F)c1` (stereo not drawn) [compound 1545, 6β-dimethylamino-3-methyl-9α-(3'-trifluoromethylphenoxy)-3-azabicyclo[3.3.1]nonane dihydrochloride], for which the “ED50 (dose required to restore the rhythm in 50%)” value in data set [1] (Wistar rats, dihydrochloride) is recorded as 1.8 mg/kg.

Regarding `CN1CC2CCC(N(C)C)C(C1)C2OC(=O)C1c2ccccc2Oc2ccccc21` (stereo not drawn) [compound 1547, 6α-dimethylamino-3-methyl-9β-(xanthen-9'-carbonyloxy)-3-azabicyclo[3.3.1]nonane], in data set [1], the LD50/ED50 index was 51.1 and the “index ratio” value is 15.7. Further, the “ED50 (dose required to restore the rhythm in 50%)” value in data set [1] (Wistar rats) was 0.71 mg/kg. The LD50 in data set [2] worked out at 36.3 mg/kg.

As to `Cc1ccc(OC2C3CCC(N(C)C)C2CN(C)C3)cc1` (stereo not drawn) [compound 1548, 6α-dimethylamino-3-methyl-9α-(4'-methylphenoxy)-3-azabicyclo[3.3.1]nonane fumarate], the median effective dose (ED50) in data set [1] was determined as 2.5 mg/kg.

As for `CN1CC2CCC(N(C)C)C(C1)C2OC(=O)c1ccc(F)cc1` (stereo not drawn) [compound 1641, 6α-dimethylamino-3-methyl-9α-(4'-fluorobenzoyloxy)-3-azabicyclo[3.3.1]nonane dihydrochloride monohydrate], in data set [1], the 50% effective dose (ED50) was determined as 0.55 mg/kg.

With `CN1CC2CCC(N(C)C)C(C1)C2OC(=O)c1cccc(F)c1` (stereo not drawn) [compound 1642, 6α-dimethylamino-3-methyl-9α-(3'-fluorobenzoyloxy)-3-azabicyclo[3.3.1]nonane dihydrochloride], in data set [1], the ED50 came to 0.5 mg/kg.

With `CN1CC2CCC(N(C)C)C(C1)C2OC(=O)c1ccc(Cl)c(Cl)c1` (stereo not drawn) [compound 1643, 6α-dimethylamino-3-methyl-9α-(3',4'-dichlorobenzoyloxy)-3-azabicyclo[3.3.1]nonane dihydrochloride], in data set [1], the ED50 amounted to 1.2 mg/kg.

For `CN1CC2CCC(N(C)C)C(C1)C2OC(=O)c1ccccc1Cl` (stereo not drawn) [compound 1644, 6α-dimethylamino-3-methyl-9α-(2'-chlorobenzoyloxy)-3-azabicyclo[3.3.1]nonane dihydrochloride monohydrate], the ED50 in data set [1] came out at 1.4 mg/kg.

As to `CN1CC2CCC(N(C)C)C(C1)C2OC(=O)c1cccc(Cl)c1` (stereo not drawn) [compound 1645, 6α-dimethylamino-3-methyl-9α-(3'-chlorobenzoyloxy)-3-azabicyclo[3.3.1]nonane dihydrochloride monohydrate], the median effective dose (ED50) in data set [1] was determined as 1.2 mg/kg.

For `CN1CC2CCC(N(C)C)C(C1)C2OC(=O)c1cccc(C(F)(F)F)c1` (stereo not drawn) [compound 1648, 6α-dimethylamino-3-methyl-9α-(3'-trifluoremethylbenzoyloxy)-3-azabicyclo[3.3.1]nonane dihydrochloride], the ED50 in data set [1] stood at 1 mg/kg.

With `CN1CC2CCC(N(C)C)C(C1)C2OC(=O)c1ccc(Cl)cc1` (stereo not drawn) [compound 1658, 6β-dimethylamino-3-methyl-9α-(4'-chlorobenzoyloxy)-3-azabicyclo[3.3.1]nonane dihydrochloride], the “ED50 (dose required to restore the rhythm in 50%)” value in data set [1] (Wistar rats, dihydrochloride) came to 2.3 mg/kg.

Consider `CN1CC2CCC(N(C)C)C(C1)C2OC(=O)c1cccs1` (stereo not drawn) [compound 1797, 6α-dimethylamino-3-methyl-9α-(2'-thenoyloxy)-3-azabicyclo[3.3.1]nonane], for which the ED50 in data set [1] stood at 0.45 mg/kg.

For `Cc1ccc(C(=O)OC2C3CCC(N(C)C)C2CN(C)C3)cc1` (stereo not drawn) [compound 1799, 6α-dimethylamino-3-methyl-9α-(4'-methylbenzoyloxy)-3-azabicyclo[3.3.1]nonane dihydrochloride], in data set [1], the ED50 amounted to 1.1 mg/kg.

For `CN1CC2CCC(N(C)C)C(C1)C2OC(=O)c1ccc(Cl)cc1` (stereo not drawn) [compound 1800, 6α-dimethylamino-3-methyl-9α-(4'-chlorobenzoyloxy)-3-azabicyclo[3.3.1]nonane dihydrochloride], the “ED50 (dose required to restore the rhythm in 50%)” value in data set [1] (Wistar rats, dihydrochloride) was 0.75 mg/kg.

Turning to `CN1CC2CCC(N(C)C)C(C1)C2OC(=O)c1ccc2ccccc2c1` (stereo not drawn) [compound 1801, 6α-dimethylamino-3-methyl-9α-(2'-naphthoyloxy)-3-azabicyclo[3.3.1]nonane], the ED50 in data set [1] is 0.7 mg/kg.

As for `CN1CC2CCC(N(C)C)C(C1)C2OC(=O)c1ccc2ccccc2c1` (stereo not drawn) [compound 1840, 6β-dimethylamino-3-methyl-9α-(2'naphthoyloxy)-3-azabicyclo[3.3.1]nonane dihydrochloride], the “ED50 (dose required to restore the rhythm in 50%)” value in data set [1] (Wistar rats, dihydrochloride) worked out at 0.95 mg/kg.
